Assay results taken from article PMC11311842, “Radiosynthesis and Preclinical Evaluation of ^18F-Labeled Estradiol Derivatives with Different Lipophilicity for PET Imaging of Breast Cancer” (Cancers, 2024).

Key:
[1] = system: ER- MDA-MB-231 tumor slices; assay: In vitro autoradiography of MDA-MB-231 tumor slices; format: binding, human; conditions: 60 min, room temperature, with or without E2 (72 µM)
Experimental: (§1) MCF-7, MDA-MB231 and T47D tumors grown in nude mice were collected and frozen in a hexane/dry ice bath (−70 °C). Tumor slices (14 µm) were prepared on a cryostat microtome HM 500 O (Microm, Walldorf, Germany), thaw-mounted on HistoBond® adhesive glass slides (Marienfeld, Lauda-Königshofen, Germany) and stored at −80 °C. For in vitro autoradiography studies, the tumor tissue sections were thawed and pre-incubated in incubation buffer (50 mM Tris HCl, 5 mM MgCl2, 0.2% bovine serum albumin (BSA), pH 7.4) at room temperature for 15 min. Then, the sections were transferred to incubation buffer containing ^18F-TA-Glyco-EE (3–5 MBq) in a total volume of 70 mL. For the determination of non-specific binding, separate sections were incubated with ^18F-TA-Glyco-EE in the presence of E2 (72 µM). After an incubation time of 60 min, the sections were washed three times with incubation buffer, followed by a short dip in ice-cold distilled water. The slices were carefully dried in a stream of warm air and finally placed on a phosphor imager screen (Fuji Imaging Plate BAS-IP SR 2025 E) overnight prior to readout (30 µm resolution) using the HD-CR-35 Bio scanner (Elysia-Raytest, Straubenhardt, Germany). […] Regions of interest were analyzed from 3–4 tumor slices from the MCF-7, MDA-MB231 and T47D tumors, and mean values of the intensity per area were calculated.

[2] = Stability in human serum and plasma in vitro (radio-HPLC); format: in vitro ADME; conditions: 37 °C
Experimental: An aliquot of the formulated tracer solution (40 µL containing approx. 10 MBq in 0.9% NaCl) was incubated with 200 µL of human plasma (Hölzel Diagnostika Handels GmbH, from CosmoBio USA, Carlsbad, CA, USA) or human serum (Biochrom GmbH, Merck KGaA, Darmstadt, Germany), respectively, at 37 °C. After various time points (5–120 min), aliquots (30 µL) were taken and quenched in methanol or 10% TFA (30 µL). The samples were centrifuged for 3 min, and subsequently the supernatants were analyzed by radio-HPLC (Chromolith RP-18e, 100 × 4.6 mm, 10–100% acetonitrile (with 0.1% TFA) in water (with 0.1% TFA) over 5 min, 4 mL/min).

MCF-7 cells = assay: Stability in cells (radio-HPLC of cell lysate); format: in vitro ADME, human; conditions: 90 min incubation, 37 °C, absence of serum
Experimental: ^18F-TA-Glyco-EE was incubated for 90 min at 37 °C with MCF-7 cells (350,000 cells/well, seeded one day prior to the experiment in 24-well plates) in cell culture medium. After washing twice with ice-cold PBS, the cells were scraped off, and 200 µL PBS was added for resuspension. The cell suspension was transferred to Eppendorf tubes, homogenized using ultrasound (Bandelin sonoplus HD2070 ultrasonic homogenizer, room temperature, BANDELIN electronic GmbH, Berlin, Germany) and then centrifuged. The supernatant was quenched in 10% TFA, and after centrifugation the resulting supernatant was analyzed by radio-HPLC (Chromolith RP-18e, 100 × 4.6 mm, 10–100% acetonitrile (containing 0.1% TFA) in water (containing 0.1% TFA) over 5 min, 4 mL/min).

ER+ MCF-7 tumor slices = assay: In vitro autoradiography of MCF-7 tumor slices; format: binding, human; conditions: 60 min, room temperature, with or without E2 (72 µM)
Experimental: as §1

[3] = system: T47D (ER+) and MDA-MB-231 (ER-) tumor-bearing nude mice; assay: Biodistribution in tumor-bearing nude mice; format: in vivo
Experimental: Female NMRI nude mice (Crl:NMRI-Foxn1^nu) were purchased from Charles River (Charles River Laboratories Inc., Wilmington, MA, USA) at the age of four weeks and kept in groups of four to five animals in individually ventilated cages in a twelve hours dark/light cycle, with unlimited access to water and standard chow. At the age of nine to ten weeks, one 17β-estradiol pellet per animal (0.72 mg per pellet, 3 mm diameter) with a 60-day release time (Innovative Research of America, Sarasota, FL, USA) was subcutaneously implanted on the back under isoflurane anesthesia. After three days, approximately 2–3 × 10^6 MCF-7, T47D or MDA-MB-231 tumor cells (in 50 µL PBS) were mixed with Matrigel (50 µL, BD Biosciences, Becton, Dickinson and Company, Franklin Lakes, NJ, USA) and injected subcutaneously to the back of the mice. Tumor diameters and weight of the animals were recorded five times a week. Biodistribution or imaging studies were performed three–four weeks after the inoculation of the cells.
For biodistribution experiments, nude mice bearing T47D and MDA-MB-231 tumors (n = 3, per group) were injected with ^18F-TA-Glyco-EE (2–4 MBq) under isoflurane anesthesia. After 30, 60 or 90 min, the mice were sacrificed by cervical dislocation. Blood, as well as organs and tissue from the lung, liver, kidneys, heart, spleen, brain, muscle, femur and tumors, were harvested and measured for radioactivity in the γ-counter (Wallac Wizard, PerkinElmer, Waltham, MA, USA). The samples were weighed, and the radioactivity of each tissue sample was calculated as a percentage of the total injected dose per gram tissue (%ID/g).

ER+ MCF-7 cells = assay: Cellular uptake assay in ER+ cells; format: cell-based, human
Experimental: One day prior to the experiment, MCF-7 and MDA-MB-231 cells were seeded in 24-well plates (350,000 cells/well). The cells were washed once with cell medium. The cells were incubated with the respective radiotracer in cell medium (510 µL) for 10, 20, 30, 60, 90, 120 min at 37 °C in the absence and presence of estradiol (E2, final concentration of 72 µM). After incubation, the plates were set on ice and washed with ice-cold PBS twice, following cell lysis and detachment with NaOH (0.1 M, 750 µL, 37 °C). The cells were transferred to counting tubes, and the radioactivity was measured using a γ-counter (Wallac Wizard, PerkinElmer, Waltham, MA, USA). The protein concentration of each well was determined in duplicate using Bradford reagent (Bio-Rad Laboratories GmbH, Feldkirchen, Germany). The cellular uptake assay was performed in 2–4 independent experiments, each performed in quadruplicate for each time point.

## CC(=O)OC1C(C[18F])OC(n2cc(C3(O)CCC4C5CCc6cc(O)ccc6C5CCC43C)nn2)C(OC(C)=O)C1OC(C)=O (stereo not shown) [^18F-TA-Glyco-EE]
[1]
  Binding to MDA-MB-231 tumor sections (autoradiography): negligible binding
[2]; over 120 min, radio-HPLC
  Stability in human serum and plasma (in words): rapidly deacetylated in serum and plasma
[2]; after 30 min, same for serum and plasma, deacetylation observed
  Stability in Human Serum or Plasma: 0% after 30 min ^2,5
MCF-7 cells
  Stability in MCF-7 cells (intracellular radioactivity, HPLC): without any significant deacetylation
ER+ MCF-7 tumor slices
  Binding to MCF-7 tumor sections (autoradiography): high specific binding
[3]; 30 min p.i.
  Uptake in MDA-MB-231 tumors: 0.9 %ID/g
  Uptake in T47D tumors: 1.0 %ID/g
  Uptake in intestine: 10 %ID/g
  Uptake in liver: 13 %ID/g
[3]; 60 min and 90 min p.i., multiple t-test
  Tumor uptake ER+ T47D versus ER- MDA-MB-231: statistically significant differences
[3]; 90 min p.i.
  Uptake in liver: 1.2 %ID/g
[3]; all time points (30, 60, 90 min p.i.)
  Uptake in blood and all other non-target organs: low
[3]; as summarised in the discussion
  Uptake in T47D or MDA-MB-231 tumors: < 1 %ID/g
[3]; decreasing over 90 min
  Uptake in liver and intestine: less than 3 %ID/g
ER+ MCF-7 cells; ER+ MCF-7 cells
  Cellular uptake relative to ^18F-PEG-EE and ^18F-Glyco-EE: 10 fold
ER+ MCF-7 cells; after 60 min, 37 °C, absence of E2
  Cellular uptake in MCF-7 cells: 270 %/mg
